Test results published in patent publication US20240050428A1 (Cullgen (Shanghai), Inc., priority 2020, published 2024).
Where two headings read alike, the source gives them in different places.

Assays:
[1] = tested on: MV4;11 cells; assay: Cell viability assay (CellTiter-Glo) in MV4;11 cells, alone or with gilteritinib; type: cell-based; conditions: Homo sapiens, MV4;11 cells, CellTiter-Glo, read-out: MV4
[2] = tested on: MOLM-13 cells; assay: Cell viability assay (CellTiter-Glo) in MOLM-13 cells, alone or with gilteritinib; type: cell-based; conditions: Homo sapiens, MOLM-13 cells, CellTiter-Glo
[3] = MV4-11, 72 h, compound alone (without gilteritinib), three days, 11 IC50
[4] = MV4-11, 72 h, compound with gilteritinib 10 nM, three days, 11 IC50 gilteritinib
[5] = MOLM-13, 72 h, compound alone (without gilteritinib), three days, read-out: MOLM-13 IC50
[6] = MOLM-13, 72 h, compound with gilteritinib 20 nM, three days, read-out: MOLM-13 IC50 gilteritinib
[7] = MV4-11, 72 h, with gilteritinib 10 nM, three days, 11 IC50 gilteritinib
[8] = MOLM-13, 72 h, with gilteritinib 20 nM, three days, read-out: MOLM-13 IC50 gilteritinib
[9] = MV4-11, 72 h, with 10 nM gilteritinib, 3 days, 11 IC50 gilteritinib
[10] = MV4-11, 72 h, without gilteritinib, 3 days, 11 IC50
[11] = MOLM-13, 72 h, with 20 nM gilteritinib, 3 days, read-out: MOLM-13 IC50 gilteritinib
[12] = MOLM-13, 72 h, without gilteritinib, 3 days, read-out: MOLM-13 IC50
[13] = 72 h, compound alone (without gilteritinib), three days, 11 IC50
[14] = 72 h, with gilteritinib 10 nM, three days, 11 IC50 gilteritinib
[15] = 72 h, compound alone (without gilteritinib), three days, read-out: MOLM-13 IC50
[16] = 72 h, with gilteritinib 20 nM, three days, read-out: MOLM-13 IC50 gilteritinib

SMILES	IC50 [1, 3]	IC50 [1, 4]	IC50 [2, 5]	IC50 [2, 6]	IC50 [1, 7]	IC50 [2, 8]	other results
Cc1nc(-c2cnc3ccccc3n2)cn1CCCCCCNc1ccc2c(c1)C(=O)N(C1CCC(=O)NC1=O)C2=O (centres unmarked) [GS-380, 2-(2,6-Dioxopiperidin-3-yl)-5-((6-(2-methyl-4-(quinoxalin-2-yl)-1H-imidazol-1-yl)hexyl)amino)isoindoline-1,3-dione]	> 1000 nM		100 to 1000 nM		> 1000 nM	100 to 1000 nM	
O=C1CCC(N2C(=O)c3ccc(NCCCCCC(=O)N4CCC(N5CCCCC5)CC4)cc3C2=O)C(=O)N1 (centres unmarked) [GS-012, 5-((6-([1,4′-Bipiperidin]-1′-yl)-6-oxohexyl)amino)-2-(2,6-dioxopiperidin-3-yl)isoindoline-1,3-dione]							IC50 [1, 9]: > 10000 nM; IC50 [1, 10]: > 10000 nM; IC50 [2, 11]: 312 nM; IC50 [2, 12]: > 10000 nM
O=C1CCC(N2C(=O)c3ccc(NCCCCCC(=O)N4CCC(c5ccccn5)CC4)cc3C2=O)C(=O)N1 (centres unmarked) [GS-017, 2-(2,6-Dioxopiperidin-3-yl)-5-((6-oxo-6-(4-(pyridin-2-yl)piperidin-1-yl)hexyl)amino)isoindoline-1,3-dione]							IC50 [1, 9]: 2 nM; IC50 [1, 10]: 20 nM; IC50 [2, 11]: 2 nM; IC50 [2, 12]: 30 nM
O=C1CCC(N2C(=O)c3ccc(NCCCCCCN4CCC(n5cc(-c6cnc7ccccc7n6)cn5)CC4)cc3C2=O)C(=O)N1 (centres unmarked) [GS-326, 2-(2,6-Dioxopiperidin-3-yl)-5-((6-(4-(4-(quinoxalin-2-yl)-1H-pyrazol-1-yl)piperidin-1-yl)hexyl)amino)isoindoline-1,3-dione]	> 1000 nM		> 1000 nM		> 1000 nM	100 to 1000 nM	
O=C1CCC(N2C(=O)c3ccc(NCCNc4cccc(N5CCN(c6ccccn6)CC5)c4)cc3C2=O)C(=O)N1 (centres unmarked) [GS-372, 2-(2,6-Dioxopiperidin-3-yl)-5-((2-((3-(4-(pyridin-2-yl)piperazin-1-yl)phenyl)amino)ethyl)amino)isoindoline-1,3-dione]							IC50 [1, 13]: 10 to 100 nM; IC50 [1, 14]: < 10 nM; IC50 [2, 15]: < 10 nM; IC50 [2, 16]: < 10 nM
CN1C(=O)CCC(N2C(=O)c3ccc(NCCC[C@H]4C[C@H](n5cc(-c6cnc7ccccc7n6)c(C6CC6)n5)C4)cc3C2=O)C1=O (stereo partly drawn) [GS-600, 5-((3-(trans-3-(3-Cyclopropyl-4-(quinoxalin-2-yl)-1H-pyrazol-1-yl)cyclobutyl)propyl)amino)-2-(1-methyl-2,6-dioxopiperidin-3-yl)isoindoline-1,3-dione]	> 1000 nM	> 1000 nM	> 1000 nM	> 1000 nM			
CN1CCN(C2CCN(C(=O)CCCCCNc3ccc4c(c3)C(=O)N(C3CCC(=O)NC3=O)C4=O)CC2)CC1 (centres unmarked) [GS-013, 2-(2,6-Dioxopiperidin-3-yl)-5-((6-(4-(4-methylpiperazin-1-yl)piperidin-1-yl)-6-oxohexyl)amino)isoindoline-1,3-dione]							IC50 [1, 9]: > 10000 nM; IC50 [1, 10]: > 10000 nM; IC50 [2, 11]: 1850 nM; IC50 [2, 12]: > 10000 nM
O=C1CCC(N2Cc3c(Nc4ccnc(Nc5cccc(N6CCC(N7CCCCC7)CC6)c5)n4)cccc3C2=O)C(=O)N1 (centres unmarked) [GS-094, 3-(4-((2-((3-([1,4′-Bipiperidin]-1′-yl)phenyl)amino)pyrimidin-4-yl)amino)-1-oxoisoindolin-2-yl)piperidine-2,6-dione]	> 1000 nM		> 1000 nM		> 1000 nM	> 1000 nM	
O=C1CCC(N2Cc3c(Nc4ccnc(N5CCC(n6cc(-c7cnc8ccccc8n7)cn6)CC5)n4)cccc3C2=O)C(=O)N1 (centres unmarked) [GS-081, 3-(1-Oxo-4-((2-(4-(4-(quinoxalin-2-yl)-1H-pyrazol-1-yl)piperidin-1-yl)pyrimidin-4-yl)amino)isoindolin-2-yl)piperidine-2,6-dione]	> 1000 nM		> 1000 nM		> 1000 nM	> 1000 nM	
O=C1CCC(N2C(=O)c3ccc(NCCNc4cccc(N5CCC(c6nccs6)CC5)c4)cc3C2=O)C(=O)N1 (centres unmarked) [GS-370, 2-(2,6-Dioxopiperidin-3-yl)-5-((2-((3-(4-(thiazol-2-yl)piperidin-1-yl)phenyl)amino)ethyl)amino)isoindoline-1,3-dione]							IC50 [1, 13]: < 10 nM; IC50 [1, 14]: < 10 nM; IC50 [2, 15]: < 10 nM; IC50 [2, 16]: < 10 nM
O=C1CCC(N2Cc3c(NC4CCCC(CCCn5cc(-c6cnc7ccccc7n6)cn5)C4)cccc3C2=O)C(=O)N1 (centres unmarked) [GS-157]	> 1000 nM		> 1000 nM		> 1000 nM	> 1000 nM	
Cc1nc2ccccc2nc1-c1cnn(CCCCCCNc2ccc3c(c2)C(=O)N(C2CCC(=O)NC2=O)C3=O)c1 (centres unmarked) [GS-502, 2-(2,6-Dioxopiperidin-3-yl)-5-((6-(4-(3-methylquinoxalin-2-yl)-1H-pyrazol-1-yl)hexyl)amino)isoindoline-1,3-dionee]	100 to 1000 nM	10 to 100 nM	100 to 1000 nM	10 to 100 nM			

Further lines, with some results ahead:

IC50 [1, 3]	IC50 [1, 4]	IC50 [2, 5]	IC50 [2, 6]	IC50 [1, 7]	IC50 [2, 8]	SMILES	other results
10 to 100 nM	< 10 nM	10 to 100 nM	< 10 nM			Cn1ccc2c(-c3cn([C@H]4C[C@H](CNc5ccc6c(c5)C(=O)N(C5CCC(=O)NC5=O)C6=O)C4)nc3C3CC3)nccc21 (stereo partly drawn) [GS-615, 5-(((trans-3-(3-Cyclopropyl-4-(1-methyl-1H-pyrrolo[3,2-c]pyridin-4-yl)-1H-pyrazol-1-yl)cyclobutyl)methyl)amino)-2-(2,6-dioxopiperidin-3-yl)isoindoline-1,3-dione]	
10 to 100 nM	< 10 nM	100 to 1000 nM	< 10 nM			O=C1CCC(N2C(=O)c3ccc(NCCCCCCn4cc(-c5cnc6ccc(N7CCNCC7)cc6n5)cn4)cc3C2=O)C(=O)N1 (centres unmarked) [GS-532, 2-(2,6-Dioxopiperidin-3-yl)-5-((6-(4-(7-(piperazin-1-yl)quinoxalin-2-yl)-1H-pyrazol-1-yl)hexyl)amino)isoindoline-1,3-dione]	
100 to 1000 nM	10 to 100 nM	> 1000 nM	10 to 100 nM			O=C1CCC(N2C(=O)c3ccc(NCCC[C@H]4C[C@H](n5cc(-c6ccccn6)cn5)C4)cc3C2=O)C(=O)N1 (stereo partly drawn) [GS-582, 2-(2,6-Dioxopiperidin-3-yl)-5-((3-(trans-3-(4-(pyridin-2-yl)-1H-pyrazol-1-yl)cyclobutyl)propyl)amino)isoindoline-1,3-dione]	
100 to 1000 nM		100 to 1000 nM		< 10 nM	< 10 nM	O=C1CCC(N2C(=O)c3ccc(NCCC[C@H]4C[C@H](n5cc(-c6cnc7ccc(N8CCNCC8)cc7n6)cn5)C4)cc3C2=O)C(=O)N1 (stereo partly drawn) [GS-195, 2-(2,6-Dioxopiperidin-3-yl)-5-((3-(trans-3-(4-(7-(piperazin-1-yl)quinoxalin-2-yl)-1H-pyrazol-1-yl)cyclobutyl)propyl)amino)isoindoline-1,3-dione]	
100 to 1000 nM	10 to 100 nM	> 1000 nM	> 1000 nM			O=C1CCC(N2Cc3cc(CNC(=O)C(F)(F)CCC(=O)N4CCC(n5cc(-c6cnc7ccccc7n6)cn5)CC4)ccc3C2=O)C(=O)N1 (centres unmarked) [GS-533, N-((2-(2,6-dioxopiperidin-3-yl)-1-oxoisoindolin-5-yl)methyl)-2,2-difluoro-5-oxo-5-(4-(4-(quinoxalin-2-yl)-1H-pyrazol-1-yl)piperidin-1-yl)pentanamide]	
100 to 1000 nM		10 to 100 nM		10 to 100 nM	10 to 100 nM	O=C1CCC(N2C(=O)c3ccc(NCCC[C@H]4C[C@H](n5cc(-c6cccc(C7CCNCC7)n6)cn5)C4)cc3C2=O)C(=O)N1 (stereo partly drawn) [GS-238, 2-(2,6-Dioxopiperidin-3-yl)-5-((3-(trans-3-(4-(6-(piperidin-4-yl)pyridin-2-yl)-1H-pyrazol-1-yl)cyclobutyl)propyl)amino)isoindoline-1,3-dione]	
< 10 nM		< 10 nM		< 10 nM	< 10 nM	CN1CCN(c2cccc3nc(-c4cn([C@H]5C[C@H](CNc6ccc7c(c6)C(=O)N(C6CCC(=O)NC6=O)C7=O)C5)nc4C4CC4)cnc23)CC1 (stereo partly drawn) [GS-267, 5-(((trans-3-(3-Cyclopropyl-4-(5-(4-methylpiperazin-1-yl)quinoxalin-2-yl)-1H-pyrazol-1-yl)cyclobutyl)methyl)amino)-2-(2,6-dioxopiperidin-3-yl)isoindoline-1,3-dione]	
10 to 100 nM	< 10 nM	100 to 1000 nM	< 10 nM			CNc1cccnc1-c1cn([C@H]2C[C@H](CNc3ccc4c(c3)C(=O)N(C3CCC(=O)NC3=O)C4=O)C2)nc1C1CC1 (stereo partly drawn) [GS-620, 5-(((trans-3-(3-Cyclopropyl-4-(3-(methylamino)pyridin-2-yl)-1H-pyrazol-1-yl)cyclobutyl)methyl)amino)-2-(2,6-dioxopiperidin-3-yl)isoindoline-1,3-dione]	
